From patent US20100267743A1, “3-(PHENOXYPYRROLIDIN-3-YL-METHYL)HETEROARYL, 3-(PHENYLPYRROLIDIN-3-YLMETHOXY)HETEROARYL, AND 3-(HETEROARYLPYRROLIDIN-3-YLMETHOXY)HETEROARYL COMPOUNDS” (priority 2009, published 2010)
Marks after values point to notes of the source that are not given here.

Tests used:
SERT = SERT (Homo sapiens, UniProt P31645); test: hSERT radioligand binding assay (3H-citalopram); parameters: expressed in transfected cells; host or cells: HEK-293; settings: hSERT membranes (HEK-293), 1.0 nM 3H-citalopram; for Ki: read-out: SERT pKi (converted)
SERT, sequence (P31645 whole entry): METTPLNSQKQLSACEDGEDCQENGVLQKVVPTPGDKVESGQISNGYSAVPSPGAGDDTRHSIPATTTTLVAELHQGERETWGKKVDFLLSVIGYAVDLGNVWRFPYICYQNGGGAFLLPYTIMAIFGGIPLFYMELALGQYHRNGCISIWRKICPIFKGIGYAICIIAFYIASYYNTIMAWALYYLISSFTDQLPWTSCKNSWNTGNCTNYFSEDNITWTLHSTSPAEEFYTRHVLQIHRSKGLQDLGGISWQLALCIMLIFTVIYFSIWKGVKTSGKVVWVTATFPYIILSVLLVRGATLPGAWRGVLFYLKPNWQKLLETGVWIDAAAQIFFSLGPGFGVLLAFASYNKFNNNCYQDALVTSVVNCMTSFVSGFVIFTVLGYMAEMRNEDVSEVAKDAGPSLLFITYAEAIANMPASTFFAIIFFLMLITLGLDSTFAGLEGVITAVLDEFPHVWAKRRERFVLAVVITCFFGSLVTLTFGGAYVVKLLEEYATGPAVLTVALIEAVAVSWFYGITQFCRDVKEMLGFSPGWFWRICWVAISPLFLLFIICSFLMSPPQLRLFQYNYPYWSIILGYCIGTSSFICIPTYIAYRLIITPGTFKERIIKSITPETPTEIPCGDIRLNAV
Outline: (§1)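 Membranes came from HEK-293 cells stably expressing hSERT (0.5 μg protein) or hNET (1 μg), with 3H-citalopram or 3H-nisoxetine respectively. Incubation was 60 min at 22° C in Tris buffer with 120 mM NaCl and 5 mM KCl, pH 7.4, followed by filtration and scintillation counting. pKi was derived by Cheng-Prusoff from IC50 and saturation-derived Kd.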

NET = NET (Homo sapiens, UniProt P23975); test: hNET radioligand binding assay (3H-nisoxetine); parameters: expressed in transfected cells; host or cells: HEK-293; settings: hNET membranes (HEK-293), 1.0 nM 3H-nisoxetine; for Ki: read-out: NET pKi (converted)
NET, sequence (P23975 whole entry): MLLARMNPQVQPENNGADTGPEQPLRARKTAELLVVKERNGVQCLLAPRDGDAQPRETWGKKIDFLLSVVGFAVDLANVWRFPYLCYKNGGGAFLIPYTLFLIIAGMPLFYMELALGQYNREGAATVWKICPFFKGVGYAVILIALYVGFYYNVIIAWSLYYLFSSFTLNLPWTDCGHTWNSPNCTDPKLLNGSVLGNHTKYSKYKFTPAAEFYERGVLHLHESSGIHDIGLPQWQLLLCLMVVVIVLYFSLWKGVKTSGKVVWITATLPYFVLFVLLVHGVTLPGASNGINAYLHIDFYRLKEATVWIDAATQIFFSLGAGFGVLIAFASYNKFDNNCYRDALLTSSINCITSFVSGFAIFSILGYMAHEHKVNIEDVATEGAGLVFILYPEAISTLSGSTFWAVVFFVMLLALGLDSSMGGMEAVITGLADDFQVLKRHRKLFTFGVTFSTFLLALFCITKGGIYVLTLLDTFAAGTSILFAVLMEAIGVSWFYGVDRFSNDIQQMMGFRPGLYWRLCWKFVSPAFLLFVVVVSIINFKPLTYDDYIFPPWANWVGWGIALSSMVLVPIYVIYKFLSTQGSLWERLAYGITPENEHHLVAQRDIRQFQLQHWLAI
Outline: as §1

Ki (SERT) [nM]	Ki (NET) [nM]	Structure (SMILES)	SERT pKi (SERT)	NET pKi (NET)
–	–	O=C(O)C(F)(F)F.c1ccc2c(O[C@@H](c3ncco3)[C@H]3CCNC3)cccc2c1 [19-3]	≧7.0	≧7.0
–	–	COc1cccnc1O[C@@H](c1ccccc1)[C@H]1CCNC1.O=C(O)C(F)(F)F [14-39]	≧7.0	≧5.0
–	–	Fc1cnc(O[C@@H](c2ccccc2)[C@H]2CCNC2)c(F)c1C(F)(F)F.O=C(O)C(F)(F)F [14-18]	≧7.0	≧7.0
–	–	CC(=O)c1c(O[C@@H](c2ncco2)[C@H]2CCNC2)ccc(Cl)c1Cl.O=C(O)C(F)(F)F [6-27]	≧7.0	~5.0*
–	–	Fc1cc(Cl)ccc1O[C@@H](c1ncco1)[C@H]1CCNC1.O=C(O)C(F)(F)F [6-31]	≧7.0	≧7.0
≤ 10000	≤ 10000	Fc1cc(F)c(Cl)c(O[C@H](c2cnccn2)[C@H]2CCNC2)c1Cl [10-2]	–	–
≤ 10000	≤ 100	COc1ccccc1OC(c1cccnc1)[C@H]1CCNC1 (stereo partly drawn) [Example 2-81, 3-[(S)-(2-Methoxyphenoxy)-pyrrolidin-3-yl-methyl]pyridine]	–	–
–	–	FC(F)(F)c1cc(Cl)ccc1O[C@@H](c1ncco1)[C@H]1CCNC1.O=C(O)C(F)(F)F [6-18]	≧7.0	≧7.0
–	–	Cc1c(F)c(F)nc(O[C@@H](c2ccccc2)[C@H]2CCNC2)c1F.O=C(O)C(F)(F)F [14-4]	≧7.0	≧5.0
≤ 100	≤ 100	Cc1cc(Cl)cnc1O[C@@H](c1cncc(F)c1)[C@H]1CCNC1 [Example 17]	–	–
–	–	Clc1cc(-c2ccccc2)ccc1O[C@@H](c1ncco1)[C@H]1CCNC1.O=C(O)C(F)(F)F [6-25]	≧5.0	≧7.0
≤ 100	≤ 10000	Cc1cc(Cl)cc(Cl)c1OC(c1cncc(Cl)c1)C1CCNC1 [Example 2-30, 3-Chloro-5-[(R)-(2,4-dichloro-6-methylphenoxy)-(S)-pyrrolidin-3-yl-methy1]-pyridine]	–	–
–	–	Fc1cc(F)c(Cl)c(O[C@@H](c2cnccn2)[C@H]2CCNC2)c1Cl.O=C(O)C(F)(F)F [10-1]	≧7.0	≧7.0
≤ 100	≤ 100	Cc1cc(Cl)ccc1OC(c1nccs1)[C@H]1CCNC1 (single isomer, unassigned) [Example 4]	–	–
–	–	Clc1ccc(O[C@H](c2ccccc2)[C@@H]2CCNC2)cn1.O=C(O)C(F)(F)F [15-23]	≧7.0	≧5.0
–	–	Fc1ccc(O[C@@H](c2ccccc2)[C@H]2CCNC2)nc1F.O=C(O)C(F)(F)F [14-5]	≧5.0	≧7.0
≤ 100	≤ 100	Cc1ccc(Cl)c(OC(c2cccnc2)[C@H]2CCNC2)c1Cl (stereo partly drawn) [Example 2-74, 3-[(S)-(2,6-Dichloro-3-methylphenoxy)-pyrrolidin-3-yl-methyl]pyridine]	–	–
–	–	FC(F)(F)c1ccc(O[C@H](c2ccccc2)[C@@H]2CCNC2)nc1.O=C(O)C(F)(F)F [14-24]	≧7.0	≧5.0
–	–	CCc1cc(F)cc(F)c1O[C@@H](c1ncco1)[C@H]1CCNC1 [6-53]	≧7.0	≧7.0
–	–	Fc1ccc(O[C@@H](c2ncco2)[C@H]2CCNC2)c(Cl)c1.O=C(O)C(F)(F)F [6-22]	≧5.0	≧7.0
–	–	Cc1cc(Br)cnc1O[C@@H](c1ccccc1)[C@H]1CCNC1.O=C(O)C(F)(F)F [14-21]	≧7.0	≧7.0
≤ 100	≤ 10000	Fc1cc(F)c(Cl)c(O[C@H](c2ncco2)[C@H]2CCNC2)c1Cl [6-10]	–	–
–	–	COc1cccc(F)c1O[C@@H](c1ncco1)[C@H]1CCNC1.O=C(O)C(F)(F)F [6-41]	≧5.0	≧7.0
≤ 100	≤ 10000	Fc1ccc(OC(c2nccs2)C2CCNC2)c(F)c1F [Example 5-1, 2-[(R)-((S)-Pyrrolidin-3-yl-(2,3,4-trifluorophenoxy)methyl]thiazole]	–	–
–	–	Fc1cc(Cl)ccc1O[C@H](c1nccs1)[C@H]1CCNC1 [Example 5-33]	≧7.0	≧7.0
≤ 10000	≤ 10000	Fc1ccc(F)c(O[C@H](c2ncco2)[C@H]2CCNC2)c1Cl [6-21]	–	–
–	–	Fc1ccc(O[C@H](c2ccccc2)[C@@H]2CCNC2)cn1.O=C(O)C(F)(F)F [15-26]	≧7.0	≧5.0
–	≤ 100	Fc1ccc(OC(c2nccs2)C2CCNC2)c(F)c1F [Example 5-2, 2-[((S)-((S)-Pyrrolidin-3-yl-(2,3,4-trifluorophenoxy)methyl]thiazole]	≧7.0	–

Ki (SERT) [nM]	Ki (NET) [nM]	Structure (SMILES)	SERT pKi (SERT)	NET pKi (NET)
–	–	Fc1cc(F)c(O[C@@H](c2ccccc2)[C@H]2CCNC2)nc1F.O=C(O)C(F)(F)F [14-1]	≧7.0	≧5.0
≤ 100	≤ 100	Clc1cc(Cl)cc(OC(c2nccs2)C2CCNC2)c1 [Example 5-26, 2-[(R)-(3,5-Dichlorophenoxy)-((S)-pyrrolidin-3-yl-methyl]thiazole]	–	–
–	–	Cc1ccccc1O[C@@H](c1nccs1)[C@H]1CCNC1 [Example 5-24]	≧7.0	≧5.0
–	–	Clc1cccc(Cl)c1O[C@@H](c1ncco1)[C@H]1CCNC1.O=C(O)C(F)(F)F [6-8]	≧7.0	≧7.0
–	–	Clc1ccc(O[C@@H](c2ccccc2)[C@H]2CCNC2)cn1.O=C(O)C(F)(F)F [15-24]	≧7.0	≧5.0
≤ 100	–	Fc1cc(Cl)c(OC(c2nccs2)C2CCNC2)c(Cl)c1 [Example 5-11, 2-[((S)-(2,6-Dichloro-4-fluorophenoxy)-((S)-pyrrolidin-3-yl-methyl]thiazole]	–	≧5.0
≤ 100	≤ 100	Fc1cc(Cl)cc(Cl)c1OC(c1cncc(Cl)c1)C1CCNC1 [Example 2-27, 3-Chloro-5-[(R)-(2,4-dichloro-6-fluorophenoxy)-(S)-pyrrolidin-3-yl-methy1]-pyridine]	–	–
–	–	COC(=O)c1cc(Cl)ccc1O[C@@H](c1ncco1)[C@H]1CCNC1.O=C(O)C(F)(F)F [6-29]	≧7.0	≧7.0
≤ 100	≤ 100	Fc1ccc(F)c(OC(c2nccs2)C2CCNC2)c1Cl [Example 5-16, 2-[((S)-(2-Chloro-3,6-difluorophenoxy)-((S)-pyrrolidin-3-yl-methyl]thiazole]	–	–
–	–	Fc1cc(Cl)c(O[C@H](c2cncc(Cl)c2)[C@@H]2CCNC2)c(Cl)c1 [Example 2-26, 3-Chloro-5-[(R)-(2,6-dichloro-4-fluorophenoxy)-(S)-pyrrolidin-3-yl-methy1]-pyridine]	≧7.0	≧5.0
≤ 100	≤ 10000	Clc1cc(Cl)cc(O[C@H](c2cnccn2)[C@H]2CCNC2)c1 [10-10]	–	–
≤ 100	≤ 10000	COc1ccc(O[C@@H](c2ccccc2)C2CCNC2)cn1 (some centres unmarked) [15-29]	–	–
≤ 100	≤ 100	COc1ccc2ccccc2c1OC(c1ccccc1)C1CCNC1 (centres unmarked) [21-8]	–	–
≤ 100	≤ 10000	Cc1cc(Cl)cc(C)c1OC(c1cncc(F)c1)C1CCNC1 [Example 2-46, 3-[(R)-(4-Chloro-2,6-dimethylphenoxy)-(S)-pyrrolidin-3-yl-methy1]-5-fluoropyridine]	–	–
≤ 10000	≤ 100	Cc1ccccc1O[C@@H](c1ncco1)[C@H]1CCNC1 [6-33]	–	–
≤ 100	≤ 100	Clc1ncccc1O[C@@H](c1ccccc1)C1CCNC1 (some centres unmarked) [15-4]	–	–
–	–	Brc1ccc(O[C@@H](c2ccccc2)[C@H]2CCNC2)nc1.O=C(O)C(F)(F)F [14-20]	≧7.0	≧7.0
–	–	Cc1cc(Cl)cc(C)c1O[C@@H](c1ncco1)[C@H]1CCNC1.O=C(O)C(F)(F)F [6-15]	≧7.0	≧5.0
–	–	Fc1ccc(O[C@@H](c2ccccc2)[C@H]2CCNC2)nc1.O=C(O)C(F)(F)F [14-29]	≧7.0	≧7.0
≤ 100	≤ 100	COc1cccc(C(Oc2cccc3ccccc23)C2CCNC2)c1 (centres unmarked) [21-6]	–	–
≤ 100	≤ 10000	Fc1cncc([C@H](Oc2cc(Cl)c(Cl)cc2Cl)[C@H]2CCNC2)c1 [Example 2-34, 3-Fluoro-5-[(R)-(S)-pyrrolidin-3-yl-(2,4,5-trichlorophenoxy)-methyl]pyridine]	–	–
–	–	Fc1cc(Cl)cc(F)c1OC(c1ncco1)C1CCNC1 (centres unmarked) [6-13]	≧7.0	≧7.0
≤ 100	≤ 10000	Fc1cncc([C@@H](Oc2c(Cl)c(F)cc(F)c2Cl)[C@H]2CCNC2)c1 [Example 2-42, 3-[(S)-(2,6-Dichloro-3,5-difluorophenoxy)-(S)-pyrrolidin-3-yl-methyl]-5-fluoropyridine]	–	–
≤ 10000	≤ 10000	Fc1ccc(F)c(O[C@@H](c2ccco2)[C@H]2CCNC2)c1Cl [Example 8-1, (S)-3-[(R)-(2-Chloro-3,6-difluorophenoxy)furan-2-yl-methyl]pyrrolidine]	–	–
≤ 100	≤ 10000	Fc1cc(Cl)ccc1OC(c1nccs1)C1CCNC1 [Example 5-32, 2-[(R)-(4-Chloro-2-fluorophenoxy)-((S)-pyrrolidin-3-yl-methyl]thiazole]	–	–
–	–	Fc1cc(Cl)cnc1O[C@@H](c1ccccc1)[C@H]1CCNC1.O=C(O)C(F)(F)F [14-28]	≧7.0	≧5.0
–	–	COc1ccccc1O[C@@H](c1ncco1)[C@H]1CCNC1.O=C(O)C(F)(F)F [6-52]	≧5.0	≧7.0
